In patent publication US20200129622A1, “METHODS OF MAKING ANTIMICROBIAL BIOPOLYMER FROM SODIUM ALGINATE AND ALGAE EXTRACT USING AMINOGLYCOSIDES, AND METHODS OF USING THE SAME” (Colorado School of Mines, priority 2018, published 2020):
Where a name gives a salt, the structure may show the parent alone.

System: E. coli DH5α
Experiment: Antimicrobial activity by agar diffusion assay (zone of inhibition)
Format: cell-based
Set-up: unit not given here
Conditions: 50 μl of 10 mg/ml aqueous antibiotic stock in agar well; 37° C., 18 hr
Procedure: Antimicrobial activity of polymers was checked against E. coli DH5α using agar diffusion assay. Single colony of E. coli was inoculated in 10 ml of Luria Broth (LB) and incubated till OD600 reached 0.5 (log-phase culture) and 100 μl of bacterial culture was spread over LB agar plates. To check the antimicrobial activity of the antibiotics, wells were made by punching a hole in the LB agar plates. For reference plates, 50 μl of 10 mg/ml aqueous stock solution of each antibiotic was added in the wells as shown in the top row of FIG. 6.
For experiments with alginate polymers, polymer pellets were washed three times with sterile DI water to remove any unbound free antibiotics. Each washing step included the addition of 500 μl of sterile DI water and centrifugation at 10000 rpm for 15 min. After washing, polymer pellets were placed at the center of the LB plates with E. coli DH5α. Plates were incubated at 37° C. for 18 hours (hr). The zone of inhibition, e.g., the area with no growth of bacteria around well or polymer pellet, was measured using a ruler as shown in the middle and bottom rows of FIG. 6 and in Table 3 below.
The antimicrobial property of alginateaminoglycoside polymer against E. coli DH5α was quantified by measurement of the zone of bacterial inhibition. In particular, aminoglycoside biopolymers were prepared in microcentrifuge tubes and after centrifugation, pellet was washed three times with sterile deionized water to remove free antibiotic. After washing, the polymer pellet was carefully removed using a spatula and placed at the center of the plate containing E. coli DH5α cells and incubated for 18 hr. After incubation for 18 hr, white polymer pellets became transparent to varying degrees.
In particular, circular zones of growth inhibition are visible after antibiotics and polymers were placed in wells at the centers of LB plates. […] While polymers made with KS, GS, and KDS became transparent, polymers made with TS and NS remained white.

Point of comparison: gentamicin sulfate [GS], “diameter of zone of inhibition, Antibiotic only” value 2.9 ± 0.1. Against it:
- NC[C@H]1O[C@H](O[C@H]2[C@H](O)[C@@H](O[C@H]3O[C@H](CO)[C@@H](O)[C@H](N)[C@H]3O)[C@H](N)C[C@@H]2N)[C@H](O)[C@@H](O)[C@@H]1O [KS, kanamycin sulfate] — higher, 3.4 ± 0.1
- [H]/N=C(/N)N[C@H]1[C@H](O)[C@@H](O)[C@H](O[C@@H]2O[C@@H](C)[C@](O)(C=O)[C@H]2O[C@@H]2O[C@@H](CO)[C@H](O)[C@@H](O)[C@@H]2NC)[C@@H](N/C(N)=N\[H])[C@@H]1O [SS, streptomycin sulfate] — higher, 3.5 ± 0.1
- kanamycin disulfate [KDS] — within error, 3.0 ± 0.1
- neomycin sulfate [NS] — within error, 3.0 ± 0.2
- tobramycin sulfate [TS] — higher, 3.1 ± 0.1
